One data set relates to L. major amastigotes. The data set is described as follows: Leishmania major testing assay, amastigotes. Conditions: for IC50: Leishmania major; for SI (Amastigotes) selectivity index (macrophages/L. major): ratio macrophages IC50 / amastigotes IC50. The class given is cell-based.
Another data set concerns murine macrophages. The data set can be described thus: Macrophage cytotoxicity (MTT assay). In kind it is cell-based. Conditions: Mus musculus. (In general: Tetrazolium dyes change colour on reduction, which living cells bring about.)
Data set [1] relates to T. gondii tachyzoites (RH strain). The data set is described as follows: Toxoplasma gondii testing assay. To be noted: for IC50: Toxoplasma gondii, T. gondii parasites cultivated in Vero cells; for SI selectivity index (Vero/T. gondii): ratio Vero IC50 / T. gondii IC50. In kind it is cell-based.
Procedure: Cells of the Vero cell line (ATCC® CCL81™, Manassas, VA, USA) were used to cultivate T. gondii tachyzoites (RH strain, a gift from Dr. Saeed El-Ashram, State Key Laboratory for Agrobiotechnology, China Agricultural University, Beijing, China). Effects of test compounds on T. gondii growth were investigated as published previously and expressed as IC50 values, which were calculated from three independent experiments [63, 89].
In data set [2] the test system is HepG2. The data set can be described thus: Antiproliferative activity, crystal violet assay. To be noted: Homo sapiens, HepG2, 48 h, mean ± SD. The class given is cell-based.
Procedure: (§3) Human hepatocellular carcinoma cell lines HepG2 (ATCC number: HB-8065) and HuH-7 (JCRB number: JCRB0403) were cultured at Roswell Park Memorial Institute (RPMI) 1640 Medium (Gibco, Thermo Fisher Scientific, Waltham, MA, USA) supplemented with 10% fetal bovine serum, 2 mM L-glutamine (Corning, Glendale, CA, USA), 100 U/mL penicillin and 100 µg/mL streptomycin (Bio&SELL, Feucht, Germany) at 37 °C, 5% CO2 in a humidified atmosphere in an incubator.
(§4) Treatment-induced antiproliferative effects measured as a decrease in cell number were assessed by crystal violet (N-hexamethylpararosaniline from Sigma-Aldrich, Darmstadt, Germany) staining as described before [71, 88]. In brief, HepG2 and HuH-7 cells were seeded in 96-well plates and allowed to adhere to the bottom of the wells and grow for 72 h in an incubator (37 °C, 5% CO2, humidified atmosphere). Afterwards, the cells were treated with rising concentrations of the chalcones, sorafenib and 17-AAG. After 24 h, 48 h and 72 h, respectively, the cells were fixed using 1% glutaraldehyde and stained for 30 min with 0.1% crystal violet. The excess unbound dye was removed by rinsing with water for 30 min. Cells were then lysed by incubation with 0.2% Triton X-100 (Sigma-Aldrich, Darmstadt, Germany) overnight dissolving the bound dye. The extinction of crystal violet was measured at 570 nm using ELISA readers (Dynex Technologies, Denkendorf, Germany; GloMax® Discover Microplate Reader Promega, Madison, WI, USA). IC50 values are given as means ± SD of a minimum of three independent experiments performed in triplicates and more.
The next data set has as its system L. major promastigotes. The data set can be described thus: Leishmania major testing assay, promastigotes. In kind it is cell-based. To be noted: for SI (Promastigotes) selectivity index (macrophages/L. major): ratio macrophages IC50 / promastigotes IC50.
The test system of another data set is Vero monkey kidney cells. The data set is described as follows: Vero cell cytotoxicity (MTT assay). To be noted: Primates. The class given is cell-based.
The test system of data set [3] is HuH-7. The data set can be described thus: Antiproliferative activity, crystal violet assay. The class given is cell-based. Conditions: Homo sapiens, Huh-7, 48 h, mean ± SD.
Procedure: as §3, §4
For data set [4], the system named is HuH-7. The data set is described as follows: Colony formation assay. The class given is cell-based, Human. Conditions: HuH-7, 14 days of growth under treatment.
Procedure: (§5) Long-term effects of drug treatment on proliferation and clonogenicity were assessed by colony formation assays. HCC cell lines were seeded at 1000 cells/well (HepG2) and 200 cells/well (HuH-7) in 6-well plates and allowed to adhere overnight. […] Untreated cells served as controls. After 14 d, the cells were washed with PBS, fixed with 4% formaldehyde for 1 h and stained with 0.5% crystal violet for 3 min. Excess crystal violet dye was removed by gently rinsing with water. Representative images were taken and stained colonies were counted. A colony was defined as a cell aggregate of 50 or more cells. n = 4 independent experiments were performed and significance was tested by one-way ANOVA assays.
In data set [5] the test system is HepG2. The data set is described as follows: Colony formation assay. In kind it is cell-based, Human. To be noted: HepG2, 14 days of growth under treatment.
Procedure: as §5
The test system of data set [6] is HuH-7. The data set can be described thus: Lactate dehydrogenase (LDH) assay, unspecific cytotoxicity. Conditions: HuH-7, 1, 5 and 10 µM, 6 h and 24 h, vs untreated controls. The class given is cell-based, Human. The procedure: (§1) To exclude unspecific compound-induced cytotoxicity as the predominant mode of action a lactate dehydrogenase (LDH) assay was performed using the Cytotoxicity Detection Kit^PLUS LDH (Roche Diagnostics GmbH, Mannheim, Germany, Cat. No. 4744934001) as described earlier. In short, HCC cells were seeded in 96-well plates at 8 × 10^3 cells/well (HepG2) and 10 × 10^3 cells/well (HuH-7). Following incubation overnight, the cells were treated with 246TMP-3SF5 and 17-AAG at final concentrations of 1 µM, 5 µM and 10 µM, respectively, for 6 h and 24 h. The formation of the red-brownish formazan dye, which is formed proportionally to the LDH enzyme activity in the sample, was measured at 490/600 nm using the GloMax® Discover Microplate Reader (Promega, Madison, WI, USA). Unspecific cytotoxicity was determined by measuring the percentage of LDH release into the supernatant of treated cells compared to untreated controls. Measurements were performed in triplicate in n = 3 independent experiments and mean percentage changes ± SEM as compared to controls are shown.

The test system of data set [7] is HepG2. Described as above. In kind it is cell-based, Human. To be noted: HepG2, 1, 5 and 10 µM, 6 h and 24 h, vs untreated controls. As to the method:
as §1

The subject of another data set is Hsp70 in HepG2 cells. The data set is described as follows: Western blot analysis of Hsp70 expression. The class given is cell-based, Human. Conditions: HepG2, 24 h treatment. The procedure: (§2) Changes in the level of protein expression were assessed through Western blotting. HepG2 and HuH-7 cells were seeded at a density of 1 × 10^6 cells/well in 100 mm petri dishes and incubated until the desired confluency. Drugs were added at given concentrations for 24 h. Untreated cells served as controls. After washing with PBS, the cells were frozen at −20 °C. Subsequently, radioimmunoprecipitation assay (RIPA) buffer mixed with one cOmplete™ Mini Protease Inhibitor tablet/10 mL (Roche Diagnostics GmbH, Mannheim, Germany) was added to lyse the cells. Following these steps, the protein levels were analyzed using the Pierce™ BCA Protein Assay Kit (Thermo Fisher Scientific, Waltham, USA) and protein levels were normalized to ensure equal protein loading of 20 µg/lane. Laemmli buffer and β-mercaptoethanol were added to the probes following denaturation at 96 °C for 10 min. Proteins were separated using SDS–PAGE and electro-transferred to polyvinylidene difluoride (PVDF) membranes. Membranes were blocked in 5% non-fat dry milk in Tris-buffered saline with 0.1% Tween-20 and incubated with primary antibody overnight at 4 °C. […] Blots of n = 3 independent experiments were generated. β-Actin expression served as a loading control and calculated values were normalized to its expression.
(In general: Immunoblotting shows a protein as a band on a membrane.)

In another data set the test system is Hsp70 in HuH-7 cells. The data set can be described thus: Western blot analysis of Hsp70 expression. In kind it is cell-based, Human. To be noted: HuH-7, 24 h treatment. The procedure:
as §2

In a further data set the test system is Hsp90 in HuH-7 cells. The data set is described as follows: Western blot analysis of Hsp90 expression. To be noted: HuH-7, 24 h treatment. In kind it is cell-based, Human. As to the method: as §2
The subject of a further data set is Hsp90 in HepG2 cells. The data set can be described thus: Western blot analysis of Hsp90 expression. In kind it is cell-based, Human. Conditions: HepG2, 24 h treatment. As to the method: as §2
For data set [8], the system named is T. gondii tachyzoites (RH strain). The arrangement: method as in PMID 34174635. Conditions: positive control; cited from earlier work.

This is an account of results in PMC11768771, “Identification of a New Pentafluorosulfanyl-Substituted Chalcone with Activity Against Hepatoma and Human Parasites” (Pharmaceuticals, 2025).

Broadly, the IC50 is the concentration needed to halve the response being measured.

Molecules are shown by their SMILES. “Also recorded” adds a separate entry of the source. Read-outs that look alike come from different tables or passages of the source.

Procedure for L. major amastigotes: (§6) Promastigotes (obtained from a patient in 2016) and amastigotes of L. major were applied for drug testing according to previously published methods [63, 90]. IC50 values were calculated from three independent experiments.
Procedure for L. major promastigotes: as §6
Procedure for Vero monkey kidney cells: (§7) Cytotoxicity to Vero cells or murine macrophages was evaluated using the MTT assay according to previously published articles and expressed as IC50 values which were determined from three independent experiments [63, 91].
Procedure for murine macrophages: as §7

As for `COc1ccccc1C(=O)/C=C/c1c2ccccc2cc2ccccc12` [2MeO-Anth], the IC50 with L. major amastigotes is 33.7 µM; with murine macrophages, 48.8 µM; in data set [1], 9.8 µM; in the data set on HepG2 [2], > 10 µM; in the data set with L. major promastigotes (Leishmania major), 1.8 µM; in the data set with Vero monkey kidney cells, 22.8 µM. For the same compound, the IC50 in the data set on HuH-7 [3] was > 10 µM. Also, in the data set with L. major amastigotes, the “SI (Amastigotes) selectivity index (macrophages/L. major)” value (“SI (Amastigotes) selectivity index” below) is on record as 1.5. For the same compound, the “SI selectivity index (Vero/T. gondii)” value in data set [1] worked out at 2.3. In addition, the “SI (Promastigotes) selectivity index (macrophages/L. major)” value (“SI (Promastigotes) selectivity index” below) in the data set on L. major promastigotes turned out to be 26.6.
For `C=CCNC1=C2C[C@@H](C)C[C@H](OC)[C@H](O)[C@@H](C)/C=C(\C)[C@H](OC(N)=O)[C@@H](OC)/C=C\C=C(/C)C(=O)NC(=CC1=O)C2=O` [17-AAG], the figures for the IC50 in the data set on HepG2 [2] and in the data set with HuH-7 [3] were 1.6 ± 0.5 µM and 0.4 ± 0.4 µM, respectively. The “Colony formation (long-term antiproliferative effect, clonogenicity)” value (from here on “Colony formation”) in the data set on HuH-7 [4] and in the data set with HepG2 [5] was “inhibited colony formation significantly; also recorded: close to no colonies formed” in each case.
For `COc1ccc(C(=O)/C=C/c2cccc([N+](=O)[O-])c2)c(OC)c1` [24DMP-3NO], the IC50 in the data set on L. major amastigotes was 28.4 µM; with murine macrophages, 25.2 µM; in data set [1], 2.2 µM; in the data set on HepG2 [2] it was > 10 µM; in the data set with L. major promastigotes, 0.86 µM; in the data set on L. major promastigotes (Leishmania major), < 1 µM. The 50% inhibitory concentration (IC50) in the data set on Vero monkey kidney cells is 5.4 µM; with HuH-7 [3], > 10 µM. Besides, the “SI (Amastigotes) selectivity index” value in the data set with L. major amastigotes was 0.89. For the same compound, the “SI selectivity index (Vero/T. gondii)” value in data set [1] stood at 2.4. Further, the “SI (Promastigotes) selectivity index” value in the data set with L. major promastigotes is listed as 29.3.
Turning to `COc1ccc(C(=O)/C=C/c2c3ccccc3cc3ccccc23)c(OC)c1` [24DMP-Anth], the half-inhibitory concentration (IC50) with L. major amastigotes is 28 µM; in the data set on murine macrophages, 48.3 µM; in data set [1], 7.6 µM; in the data set with HepG2 [2], > 10 µM; with L. major promastigotes (Leishmania major), 2.2 µM; with Vero monkey kidney cells, 22.3 µM. Moreover, the IC50 with HuH-7 [3] is > 10 µM. Further, the “SI (Amastigotes) selectivity index” value with L. major amastigotes is on record as 1.7. The “SI selectivity index (Vero/T. gondii)” value in data set [1] turned out to be 2.9. Besides, the “SI (Promastigotes) selectivity index” value in the data set with L. major promastigotes worked out at 22.3.
Turning to `COc1cc(OC)c(C(=O)/C=C/c2cccc(S(F)(F)(F)(F)F)c2)c(OC)c1` [246TMP-3SF5, 2′,4′,6′-trimethoxy-3-pentafluorosulfanylchalcone], the IC50 came to 20.3 µM in the data set with L. major amastigotes; 32.1 µM in the data set with murine macrophages; 0.42 µM in data set [1]; 1.3 ± 0.2 µM with HepG2 [2]; 9.2 µM in the data set on L. major promastigotes (Leishmania major); 1.2 µM in the data set with Vero monkey kidney cells. In the data set with HuH-7 [3], 2.2 ± 0.3 µM corresponded to half-maximal inhibition (IC50). Further, in the data set with L. major amastigotes, the “SI (Amastigotes) selectivity index” value is listed as 1.6. The “SI selectivity index (Vero/T. gondii)” value in [1] is given as 2.8. Besides, in the data set with L. major promastigotes, the “SI (Promastigotes) selectivity index” value is on record as 3.5. In addition, the “LDH release (non-specific toxicity)” value in the data set on HuH-7 [6] and in the data set with HepG2 [7] was “does not significantly increase LDH release” in each case. The “Colony formation” value in the data set on HuH-7 [4] and with HepG2 [5] was “dose-dependent decrease in colonies formed; also recorded: close to no colonies formed” in each case. In addition, the “Hsp70 protein expression level” value in the data set with Hsp70 in HepG2 cells and with Hsp70 in HuH-7 cells was “drastically increased” each time. Moreover, the “Hsp90 protein expression level” value with Hsp90 in HuH-7 cells and in the data set with Hsp90 in HepG2 cells was “almost no changes” throughout.
As for `COc1cc(OC)c(C(=O)/C=C/c2c3ccccc3cc3ccccc23)c(OC)c1` [246TMP-Anth, 2′,4′,6′-trimethoxy-9-anthracenylchalcone], the IC50 in the data set on L. major amastigotes was 18.8 µM; with murine macrophages it was 15.8 µM; in data set [1], 5.8 µM; in the data set on HepG2 [2], > 10 µM; in the data set with L. major promastigotes, 0.73 µM; with L. major promastigotes (Leishmania major), < 1 µM. For the same compound, the IC50 in the data set on Vero monkey kidney cells is 19.6 µM; with HuH-7 [3] it was > 10 µM. For the same compound, the “SI (Amastigotes) selectivity index” value in the data set with L. major amastigotes worked out at 0.84. Further, the “SI selectivity index (Vero/T. gondii)” value in [1] came out at 3.4. Moreover, the “SI (Promastigotes) selectivity index” value in the data set on L. major promastigotes is recorded as 21.7.
For `O=C1C(O)=C([C@H]2CC[C@H](c3ccc(Cl)cc3)CC2)C(=O)c2ccccc21` [ATO], the IC50 in [8] was 0.07 µM.
On to `CNC(=O)c1cc(Oc2ccc(NC(=O)Nc3ccc(Cl)c(C(F)(F)F)c3)cc2)ccn1` [Sorafenib, reference compound], for which the IC50 in the data set with HepG2 [2] was 4.4 ± 1 µM; with HuH-7 [3] it was 5.4 ± 0.6 µM. Moreover, the “Colony formation” value with HuH-7 [4] and in the data set on HepG2 [5] was “colony count did not differ much from the untreated controls” in each case.
